Our source for the T/C values is PubChem BioAssay AID344 (DTP/NCI, 2004).

The structures appear in SMILES notation. Values joined by “and” are separate entries in the source; they are usually repeats but may differ in a detail not shown here. Equal values may be shown once. Toxic doses and inconclusive results are not listed. *1 amine or outer side, *2 acyl side, *3 side chain or, on linkers, in order; H or OH if unused. Where a SMILES comes first, the peptide text is derived from it. Bridges are numbered along the chain shown (N, C = ends). Roman numbers before positions name the chains, in order. [ ]: non-standard residue; d: D form. Actinocin(9to1) = Cc1c2oc3c(C)ccc(C(=O)[*:1])c3nc-2c(C(=O)[*:2])c(N)c1=O; aThr = C[C@H](O)[C@H](N)C(=O)O; NMeV = CN[C@H](C(=O)O)C(C)C; Sar = CNCC(=O)O

For this test, the system named is mice, LPC-1 plasma cell tumor ip, median survival T/C. Briefly: NCI In Vivo Anticancer Drug Screen. Data for tumor model Lieberman Plasma Cell No. 1 (LPC-1) (intraperitoneal) in unknown mice. Particulars: endpoint: median survival time, higher = longer survival. The procedure: The antitumor activity of compounds was measured in mice bearing transplantable tumors. Survival or tumor size were measured and the results are expressed as the measurement made in the treated group (T) divided by the measurement made in the vehicle treated control group (C). The tumor model used in this assay is Lieberman Plasma Cell No. 1 (LPC-1) (intraperitoneal) in unknown mice

[1] abbreviates: dose: 25.0 mg/kg/injection, schedule: Q01DX028 (sc), vehicle: carboxymethylcellulose (CMC).
[2] abbreviates: dose: 50.0 mg/kg/injection, schedule: Q01DX028 (sc), vehicle: carboxymethylcellulose (CMC).
[3] abbreviates: dose: 75.0 mg/kg/injection, schedule: Q01DX028 (sc), vehicle: carboxymethylcellulose (CMC).
Where [4] appears, read: dose: 125.0 mg/kg/injection, schedule: Q01DX028 (sc), vehicle: carboxymethylcellulose (CMC).
Where [5] appears, read: dose: 500.0 mg/kg/injection, schedule: Q01DX028 (sc), vehicle: carboxymethylcellulose (CMC).
[6] abbreviates: dose: 0.25 mg/kg/injection, schedule: Q01DX028 (sc), vehicle: saline.
Setting [7] is: dose: 1.8 mg/kg/injection, schedule: Q01DX028 (sc), vehicle: saline.
Setting [8] is: dose: 3.0 mg/kg/injection, schedule: Q01DX028 (sc), vehicle: saline.
[9] abbreviates: dose: 5.0 mg/kg/injection, schedule: Q01DX028 (sc), vehicle: saline.

With `O=c1[nH]c(=O)n(C2CC(O)C(CO)O2)cc1F` (stereo unspecified), the T/C was 102 % of control and 109 % of control (dose: 108.0 mg/kg/injection, schedule: Q01DX028 (sc), vehicle: saline); 97 % of control (dose: 180.0 mg/kg/injection, schedule: Q01DX028 (sc), vehicle: saline); 91 % of control (dose: 300.0 mg/kg/injection, schedule: Q01DX028 (sc), vehicle: saline); 86 % of control (dose: 500.0 mg/kg/injection, schedule: Q01DX028 (sc), vehicle: saline).

As for `Cn1cnc([N+](=O)[O-])c1Sc1ncnc2nc[nH]c12`, the T/C by setting is: under setting [1], 102 % of control; under setting [2], 111 % of control and 114 % of control; under setting [3], 108 % of control; (dose: 100.0 mg/kg/injection, schedule: Q01DX028 (sc), vehicle: carboxymethylcellulose (CMC)) 108 % of control.

`CCN(CC)c1ccc2cc3ccc(=[N+](CC)CC)cc-3oc2c1`: the T/C was 97 % of control (dose: 1.0 mg/kg/injection, schedule: Q01DX028 (sc), vehicle: methylcellulose (MC)); 93 % of control (dose: 2.0 mg/kg/injection, schedule: Q01DX028 (sc), vehicle: methylcellulose (MC)); 89 % of control (dose: 4.0 mg/kg/injection, schedule: Q01DX028 (sc), vehicle: methylcellulose (MC)); 87 % of control (dose: 8.0 mg/kg/injection, schedule: Q01DX028 (sc), vehicle: methylcellulose (MC)).

As for `OC(CBr)C(O)C(O)C(O)CBr` (stereo unspecified), the T/C by setting is: under setting [4], 94 % of control and 102 % of control and 100 % of control; under setting [5], 89 % of control and 115 % of control.

Regarding `CNNCc1ccc(C(=O)NC(N)=O)cc1`, the T/C was 100 % of control (dose: 50.0 mg/kg/injection, schedule: Q01DX028 (sc), vehicle: saline); 105 % of control (dose: 100.0 mg/kg/injection, schedule: Q01DX028 (sc), vehicle: saline); 102 % of control (dose: 200.0 mg/kg/injection, schedule: Q01DX028 (sc), vehicle: saline).

For `CN(C)c1nc(N(C)C)nc(N(C)C)n1`, the T/C is 92 % of control (dose: 50.0 mg/kg/injection, schedule: Q01DX009 (ip), vehicle: olive oil, sesame oil, peanut oil); 122 % of control (dose: 100.0 mg/kg/injection, schedule: Q01DX009 (ip), vehicle: other); 110 % of control (dose: 200.0 mg/kg/injection, schedule: Q01DX009 (ip), vehicle: other); 106 % of control (dose: 400.0 mg/kg/injection, schedule: Q01DX009 (ip), vehicle: other).

Consider `CS(=O)(=O)OCCN(CCOS(C)(=O)=O)c1ccc(N=O)cc1`, for which the T/C runs as follows: under setting [6], 105 % of control; (dose: 0.5 mg/kg/injection, schedule: Q01DX028 (sc), vehicle: saline) 107 % of control; (dose: 1.0 mg/kg/injection, schedule: Q01DX028 (sc), vehicle: saline) 120 % of control; under setting [7], 157 % of control; (dose: 2.0 mg/kg/injection, schedule: Q01DX028 (sc), vehicle: saline) 102 % of control and 115 % of control; (dose: 2.7 mg/kg/injection, schedule: Q01DX028 (sc), vehicle: saline) 121 % of control. The T/C runs as follows: (dose: 4.0 mg/kg/injection, schedule: Q01DX028 (sc), vehicle: saline) 94 % of control and 100 % of control; (dose: 6.0 mg/kg/injection, schedule: Q01DX028 (sc), vehicle: saline) 94 % of control.

Turning to `Cc1c2oc3c(C)ccc(C(=O)N[C@@H]4C(=O)N[C@H](C(C)C)C(=O)N5CCC[C@H]5C(=O)N(C)CC(=O)N(C)[C@@H](C(C)C)C(=O)O[C@H]4C)c3nc-2c(C(=O)N[C@@H]2C(=O)N[C@H](C(C)C)C(=O)N3CCC[C@H]3C(=O)N(C)CC(=O)N(C)[C@@H](C(C)C)C(=O)O[C@H]2C)c(N)c1=O` (I: [aThr][dV]P[Sar][NMeV] / II: [aThr][dV]P[Sar][NMeV]; ester I:1-I:C, II:1-II:C; linker I:N-II:N via Actinocin(9to1)), the T/C (dose: 0.03 mg/kg/injection, schedule: Q01DX028 (sc), vehicle: saline) was 95 % of control; the T/C (dose: 0.06 mg/kg/injection, schedule: Q01DX028 (sc), vehicle: saline) was 100 % of control; the T/C (dose: 0.13 mg/kg/injection, schedule: Q01DX028 (sc), vehicle: saline) was 95 % of control; the T/C under setting [6] is 90 % of control.

On to `O=C(O)c1[nH]c(=O)[nH]c(=O)c1F`, for which the T/C under setting [7] is 180 % of control; the T/C under setting [8] was 123 % of control; the T/C under setting [9] is 119 % of control; the T/C (dose: 8.4 mg/kg/injection, schedule: Q01DX028 (sc), vehicle: saline) is 97 % of control and 114 % of control; the T/C (dose: 14.0 mg/kg/injection, schedule: Q01DX028 (sc), vehicle: saline) was 93 % of control and 104 % of control; the T/C (dose: 23.0 mg/kg/injection, schedule: Q01DX028 (sc), vehicle: saline) is 95 % of control and 102 % of control. In addition, the T/C (dose: 39.0 mg/kg/injection, schedule: Q01DX028 (sc), vehicle: saline) was 93 % of control and the T/C (dose: 65.0 mg/kg/injection, schedule: Q01DX028 (sc), vehicle: saline) was 88 % of control.

On to `O=NN(CCCl)C(=O)NCCCl`, for which the T/C by setting is: (dose: 0.65 mg/kg/injection, schedule: Q01DX028 (sc), vehicle: saline) 109 % of control; (dose: 1.08 mg/kg/injection, schedule: Q01DX028 (sc), vehicle: saline) 107 % of control; (dose: 2.4 mg/kg/injection, schedule: Q01DX028 (sc), vehicle: saline) 157 % of control; under setting [8], 157 % of control and 185 % of control; under setting [9], 195 % of control and 202 % of control.

For `Nc1nc(=S)c2ncn(C3OC(CO)C(O)C3O)c2[nH]1` (stereo unspecified), the T/C by setting is: (dose: 3.0 mg/kg/injection, schedule: Q01DX028 (sc), vehicle: water) 121 % of control; (dose: 5.0 mg/kg/injection, schedule: Q01DX028 (sc), vehicle: water) 110 % of control; (dose: 8.4 mg/kg/injection, schedule: Q01DX028 (sc), vehicle: water) 110 % of control; (dose: 14.0 mg/kg/injection, schedule: Q01DX028 (sc), vehicle: water) 100 % of control; (dose: 23.0 mg/kg/injection, schedule: Q01DX028 (sc), vehicle: water) 100 % of control.

As for `COc1cc2oc(=O)ccc2cc1C(=O)CC(C)C`, the T/C is, setting by setting: under setting [4], 102 % of control; (dose: 250.0 mg/kg/injection, schedule: Q01DX028 (sc), vehicle: carboxymethylcellulose (CMC)) 100 % of control; under setting [5], 100 % of control.

For `CCC(CCC(C)C1CCC2C3CC=C4CC(OC(=O)CCC(=O)O)CCC4(C)C3CCC12C)C(C)C` (stereo unspecified), the T/C (dose: 100.0 mg/kg/injection, schedule: Q01DX028 (sc), vehicle: water) was 102 % of control and the T/C (dose: 400.0 mg/kg/injection, schedule: Q01DX028 (sc), vehicle: water) is 100 % of control.

For the compound `O=c1ccc2ccc(O)cc2o1`, the T/C is 102 % of control (dose: 266.0 mg/kg/injection, schedule: Q01DX028 (sc), vehicle: carboxymethylcellulose (CMC)); 97 % of control (dose: 400.0 mg/kg/injection, schedule: Q01DX028 (sc), vehicle: carboxymethylcellulose (CMC)); 97 % of control (dose: 600.0 mg/kg/injection, schedule: Q01DX028 (sc), vehicle: carboxymethylcellulose (CMC)).

Regarding `C/C(=N/N=C(N)N)c1ccc(NC(=O)Nc2ccc(/C(C)=N/N=C(N)N)cc2)cc1`, the T/C (dose: 53.0 mg/kg/injection, schedule: Q01DX028 (sc), vehicle: carboxymethylcellulose (CMC)) was 97 % of control; the T/C (dose: 88.0 mg/kg/injection, schedule: Q01DX028 (sc), vehicle: carboxymethylcellulose (CMC)) was 92 % of control; the T/C (dose: 147.0 mg/kg/injection, schedule: Q01DX028 (sc), vehicle: carboxymethylcellulose (CMC)) was 94 % of control; the T/C (dose: 245.0 mg/kg/injection, schedule: Q01DX028 (sc), vehicle: carboxymethylcellulose (CMC)) is 97 % of control.

`CS(=O)(=O)OCCC(=O)NCNC(=O)CCOS(C)(=O)=O`: the T/C (dose: 6.25 mg/kg/injection, schedule: Q01DX028 (sc), vehicle: carboxymethylcellulose (CMC)) was 184 % of control; the T/C (dose: 12.5 mg/kg/injection, schedule: Q01DX012 (sc), vehicle: carboxymethylcellulose (CMC)) was 105 % of control; the T/C (dose: 12.5 mg/kg/injection, schedule: Q01DX028 (sc), vehicle: carboxymethylcellulose (CMC)) was 223 % of control and 276 % of control; the T/C (dose: 25.0 mg/kg/injection, schedule: Q01DX012 (sc), vehicle: carboxymethylcellulose (CMC)) was 328 % of control; the T/C under setting [1] was 200 % of control and 230 % of control; the T/C (dose: 50.0 mg/kg/injection, schedule: Q01DX012 (sc), vehicle: carboxymethylcellulose (CMC)) was 110 % of control. Besides, the T/C under setting [2] was 107 % of control and 121 % of control; the T/C under setting [3] is 87 % of control.
